{"source": "paper PMC4512978", "about": "“Synthesis and evaluation in rats of homologous series of [^18F]-labeled dopamine D2/3 receptor agonists based on the 2-aminomethylchroman scaffold as potential PET tracers” (EJNMMI Research, 2015)", "key": {"[1]": {"assay": "LogD measurement (n-octanol/phosphate buffer)", "assay_type": "physicochemical", "conditions": "n-octanol / 1 M phosphate buffer pH 7.4", "description": "LogD of the tracers was measured using the radioactivity remaining on the HLB SPE cartridges after their elution with ethanol during the tracer formulation procedure (see above). The cartridge was dried with nitrogen for 5 min and eluted with at least 1.5 mL n-octanol. A 500 μL portion of octanol eluate was mixed with 500 μL of 1 M phosphate buffer (pH 7.4) and vigorously vortexed for 5 min. The mixture was then centrifuged at 17,000g for 10 min and 3 × 100 μL aliquots of organic and aqueous phase were loaded into a gamma-counter for radioactivity measurement. To correct for possible presence of radioactive impurities in the tracer, aliquots of organic and aqueous phases were later analyzed by radio-TLC, and the counts obtained from the gamma-counter were corrected according to the percentage of impurities found in aqueous and organic phases. LogD was calculated with the following formula: LogD=lgCPMorg×Xorgtracer/CPMaq×Xaqtracer,\nwhere CPMorg is the mean radioactivity of the organic aliquots, Xorgtracer is the mean percentage of radioactivity accounting for intact tracer in organic aliquots (as determined from radio-TLC), and CPMaq and Xaqtracer are the corresponding values for the aqueous phase.\nFor each tracer batch used for logD determination, the experiment was performed in duplicate. LogD values are means calculated from at least two independent experiments."}, "[2]": {"assay": "Ex vivo tissue uptake after the PET scan (gamma-counter)", "assay_type": "in vivo, Sprague-Dawley rats", "description": "After the end of the PET scans (i.e., 98 ± 8 min after tracer injection), anesthetized animals were sacrificed by heart extirpation and dissected. Samples of brain and peripheral tissues were taken. All samples were weighed, and their radioactivity was measured in a gamma-counter."}, "[3]": {"assay": "Tracer metabolism in plasma and brain extract (radio-TLC)", "assay_type": "in vivo, rats", "conditions": "living rats", "description": "Throughout the scan, arterial blood samples (15–19 samples; 0.10–0.15 mL each) were withdrawn from each rat through the arterial cannula. […] From each sample, 25 μL aliquots of whole blood were withdrawn. The rest was centrifuged at 3500 g for 5 min; 25 μL supernatant (plasma) aliquots were withdrawn and deproteinated with 75 μL of ice-cold acetonitrile. From the resulting 100 μL, 2–8 μL portions (i.e., 2–8 % of volume) were taken for thin layer chromatography analysis (radio-TLC) to assess radiometabolite content.\nThe radioactivity of the plasma and whole blood samples was measured using a well-type gamma-counter (LKB-1282-Compugamma, LKB Wallac).\nRadio-TLC was performed on silica plates. Samples of the formulated tracers (diluted) were run along with deproteinated plasma samples to confirm the identity of the parent compound in plasma. Eluent systems used and TLC Rf values recorded are presented in Additional file 1: Table S1.\nAnother half of the brain was homogenized in 3 mL of ice-cold acetonitrile using Heidolph IDAX600 homogenizer at maximum speed. Homogenate was centrifuged at 3500g for 5 min, and the supernatant (containing >95 % total radioactivity) was analyzed by radio-TLC in the same way as described above for the plasma."}, "[4]": {"conditions": "raclopride 1 mg/kg, after PET scan"}}, "data": [{"smiles": "Oc1ccc2c(c1)O[C@@H](CNCc1ccc(OCCCC[18F])cc1)CC2", "note": "[[^18F]FBu-AMC13, (R)-2-[(4-(4-[^18F]fluorobutoxy)benzylamino)methyl]chroman-7-ol]", "values": [{"measurement": "logD", "setting": "[1]", "value": "2.5 ± 0.06"}, {"measurement": "Ex vivo uptake, Adrenal glands", "setting": "[2]; RAC", "value": "32.1±3.6", "unit": "SUV"}, {"measurement": "Ex vivo uptake, Bladder", "setting": "[2]; RAC", "value": "0.59±0.26", "unit": "SUV"}, {"measurement": "Ex vivo uptake, Bone", "setting": "[2]; RAC", "value": "0.77±0.46", "unit": "SUV"}, {"measurement": "Ex vivo uptake, Bone marrow", "setting": "[2]; RAC", "value": "2.18±0.09", "unit": "SUV"}, {"measurement": "Ex vivo uptake, Duodenum", "setting": "[2]; RAC", "value": "2.70±1.37", "unit": "SUV"}, {"measurement": "Ex vivo uptake, Heart", "setting": "[2]; RAC", "value": "0.36±0.03", "unit": "SUV"}, {"measurement": "Ex vivo uptake, Kidney", "setting": "[2]; RAC", "value": "2.36±0.54", "unit": "SUV"}, {"measurement": "Ex vivo uptake, Large intestine", "setting": "[2]; RAC", "value": "0.46±0.19", "unit": "SUV"}, {"measurement": "Ex vivo uptake, Liver", "setting": "[2]; RAC", "value": "1.99±0.86", "unit": "SUV"}, {"measurement": "Ex vivo uptake, Lung", "setting": "[2]; RAC", "value": "4.26±1.02", "unit": "SUV"}, {"measurement": "Ex vivo uptake, Muscle", "setting": "[2]; RAC", "value": "0.27±0.02", "unit": "SUV"}, {"measurement": "Ex vivo uptake, Pancreas", "setting": "[2]; RAC", "value": "3.54±0.64", "unit": "SUV"}, {"measurement": "Ex vivo uptake, Plasma", "setting": "[2]; RAC", "value": "0.16±0.03", "unit": "SUV"}, {"measurement": "Ex vivo uptake, Prostate", "setting": "[2]; RAC", "value": "1.27±0.40", "unit": "SUV"}, {"measurement": "Ex vivo uptake, Small intestine", "setting": "[2]; RAC", "value": "3.21±3.67", "unit": "SUV"}, {"measurement": "Ex vivo uptake, Small intestine content", "setting": "[2]; RAC", "value": "11.0±11.4", "unit": "SUV"}, {"measurement": "Ex vivo uptake, Spleen", "setting": "[2]; RAC", "value": "2.14±0.20", "unit": "SUV"}, {"measurement": "Ex vivo uptake, Stomach", "setting": "[2]; RAC", "value": "2.19±0.67", "unit": "SUV"}, {"measurement": "Ex vivo uptake, Submandibular gland", "setting": "[2]; RAC", "value": "2.12±0.85", "unit": "SUV"}, {"measurement": "Ex vivo uptake, Thymus", "setting": "[2]; RAC", "value": "1.54±0.12", "unit": "SUV"}, {"measurement": "Ex vivo uptake, Urine", "setting": "[2]; RAC", "value": "1.51±0.95", "unit": "SUV"}, {"measurement": "Ex vivo uptake, Adrenal glands", "setting": "[2]; SAL", "value": "34.5±3.5", "unit": "SUV"}, {"measurement": "Ex vivo uptake, Bladder", "setting": "[2]; SAL", "value": "0.43±0.16", "unit": "SUV"}, {"measurement": "Ex vivo uptake, Bone", "setting": "[2]; SAL", "value": "0.73±0.47", "unit": "SUV"}, {"measurement": "Ex vivo uptake, Bone marrow", "setting": "[2]; SAL", "value": "2.31±1.19", "unit": "SUV"}, {"measurement": "Ex vivo uptake, Duodenum", "setting": "[2]; SAL", "value": "3.24±1.2", "unit": "SUV"}, {"measurement": "Ex vivo uptake, Heart", "setting": "[2]; SAL", "value": "0.50±0.25", "unit": "SUV"}, {"measurement": "Ex vivo uptake, Kidney", "setting": "[2]; SAL", "value": "3.24±0.69", "unit": "SUV"}, {"measurement": "Ex vivo uptake, Large intestine", "setting": "[2]; SAL", "value": "0.60±0.13", "unit": "SUV"}, {"measurement": "Ex vivo uptake, Liver", "setting": "[2]; SAL", "value": "1.49±0.15", "unit": "SUV"}, {"measurement": "Ex vivo uptake, Lung", "setting": "[2]; SAL", "value": "4.85±2.15", "unit": "SUV"}, {"measurement": "Ex vivo uptake, Muscle", "setting": "[2]; SAL", "value": "0.33±0.13", "unit": "SUV"}, {"measurement": "Ex vivo uptake, Pancreas", "setting": "[2]; SAL", "value": "3.78±0.41", "unit": "SUV"}, {"measurement": "Ex vivo uptake, Plasma", "setting": "[2]; SAL", "value": "0.15±0.02", "unit": "SUV"}, {"measurement": "Ex vivo uptake, Prostate", "setting": "[2]; SAL", "value": "0.95±0.17", "unit": "SUV"}, {"measurement": "Ex vivo uptake, Small intestine", "setting": "[2]; SAL", "value": "4.52±5.94", "unit": "SUV"}, {"measurement": "Ex vivo uptake, Small intestine content", "setting": "[2]; SAL", "value": "20.9±31.4", "unit": "SUV"}, {"measurement": "Ex vivo uptake, Spleen", "setting": "[2]; SAL", "value": "2.48±1.27", "unit": "SUV"}, {"measurement": "Ex vivo uptake, Stomach", "setting": "[2]; SAL", "value": "1.90±0.26", "unit": "SUV"}, {"measurement": "Ex vivo uptake, Submandibular gland", "setting": "[2]; SAL", "value": "2.01±0.53", "unit": "SUV"}, {"measurement": "Ex vivo uptake, Thymus", "setting": "[2]; SAL", "value": "2.04±0.27", "unit": "SUV"}, {"measurement": "Ex vivo uptake, Urine", "setting": "[2]; SAL", "value": "0.63±0.53", "unit": "SUV"}, {"measurement": "Ex vivo uptake, Brainstem", "setting": "[2]; [4]", "value": "1.25 ± 0.14", "unit": "SUV"}, {"measurement": "Ex vivo uptake, Cerebellum", "setting": "[2]; [4]", "value": "0.73 ± 0.08", "unit": "SUV"}, {"measurement": "Ex vivo uptake, Cortex", "setting": "[2]; [4]", "value": "1.01 ± 0.11", "unit": "SUV"}, {"measurement": "Ex vivo uptake, Hippocampus", "setting": "[2]; [4]", "value": "1.21 ± 0.06", "unit": "SUV"}, {"measurement": "Ex vivo uptake, Mean brain uptake", "setting": "[2]; [4]", "value": "1.03 ± 0.11", "unit": "SUV"}, {"measurement": "Ex vivo uptake, Olfactory bulbs", "setting": "[2]; [4]", "value": "0.86 ± 0.09", "unit": "SUV"}, {"measurement": "Ex vivo uptake, Parietal bone", "setting": "[2]; [4]", "value": "0.70 ± 0.18", "unit": "SUV"}, {"measurement": "Ex vivo uptake, Pituitary", "setting": "[2]; [4]", "value": "2.72 ± 0.77", "unit": "SUV"}, {"measurement": "Ex vivo uptake, Rest of brain", "setting": "[2]; [4]", "value": "1.10 ± 0.17", "unit": "SUV"}, {"measurement": "Ex vivo uptake, Striatum", "setting": "[2]; [4]", "value": "1.21 ± 0.14", "unit": "SUV"}, {"measurement": "Ex vivo uptake, Thalamus + hypothalamus", "setting": "[2]; [4]", "value": "1.07 ± 0.10", "unit": "SUV"}, {"measurement": "Ex vivo uptake, Brainstem", "setting": "[2]; saline, after PET scan", "value": "1.97 ± 0.42 (2) SUV"}, {"measurement": "Ex vivo uptake, Cerebellum", "setting": "[2]; saline, after PET scan", "value": "1.11 ± 0.29 (8) SUV"}, {"measurement": "Ex vivo uptake, Cortex", "setting": "[2]; saline, after PET scan", "value": "1.50 ± 0.32 (7) SUV"}, {"measurement": "Ex vivo uptake, Hippocampus", "setting": "[2]; saline, after PET scan", "value": "1.50 ± 0.25 (6) SUV"}, {"measurement": "Ex vivo uptake, Mean brain uptake", "setting": "[2]; saline, after PET scan", "value": "1.56 ± 0.33", "unit": "SUV"}, {"measurement": "Ex vivo uptake, Olfactory bulbs", "setting": "[2]; saline, after PET scan", "value": "1.85 ± 0.64 (3) SUV"}, {"measurement": "Ex vivo uptake, Parietal bone", "setting": "[2]; saline, after PET scan", "value": "0.61 ± 0.17", "unit": "SUV"}, {"measurement": "Ex vivo uptake, Pituitary", "setting": "[2]; saline, after PET scan", "value": "3.19 ± 0.29", "unit": "SUV"}, {"measurement": "Ex vivo uptake, Rest of brain", "setting": "[2]; saline, after PET scan", "value": "1.60 ± 0.25 (4) SUV"}, {"measurement": "Ex vivo uptake, Thalamus + hypothalamus", "setting": "[2]; saline, after PET scan", "value": "2.07 ± 0.70 (1) SUV"}, {"measurement": "Ex vivo uptake, Striatum", "setting": "[2]; saline, after PET scan (98 ± 8 min p.i.)", "value": "1.60 ± 0.33 (5) SUV"}, {"measurement": "metabolism in plasma", "setting": "[3]", "value": "quickly metabolized in the plasma"}]}]}
